ChEMBL document CHEMBL5724914, “Linking interpersonal differences in gut microbiota composition and drug biotransformation activity” (2024)

Tests used:
[1] = human gut metagenome, 24 h, 2 µM
[2] = (§1) The drug is tested on Z-007 corresponding to rat gut metagenome with ENA study accession number: PRJEB37062 and ENA sample accession number: ERS12561807 for biotransformation under anaerobic condition. The drug concentrations were measured over 9 timepoints collected between 0 and 24 hours of incubation by liquid-chromatography-coupled mass spectrometry (LC–MS); conditions: 2 µM
[3] = human gut metagenome, 24 h, 2 µM; remark: listed apart in the source
[4] = as §1, with “on WLS-007” for “on Z-007”, “to human” for “to rat”, “number: ERS12561742” for “number: ERS12561807”; conditions: 2 µM
[5] = as §1, with “Z-027” for “Z-007”, “to” for “to rat gut”, “ERS12561826” for “ERS12561807”; conditions: 2 µM
[6] = as §1, with “on Z-001” for “on Z-007”, “to mouse” for “to rat”, “number: ERS12561801” for “number: ERS12561807”; conditions: 2 µM
[7] = human gut metagenome, 24 h, 2 µM; remark: listed apart in the source
[8] = as §1, with “on Z-011” for “on Z-007”, “to mouse” for “to rat”, “number: ERS12561811” for “number: ERS12561807”; conditions: 2 µM
[9] = human gut metagenome, 24 h, 2 µM; remark: listed apart in the source
[10] = as §1, with “on WLS-038” for “on Z-007”, “to human” for “to rat”, “number: ERS12561745” for “number: ERS12561807”; conditions: 2 µM
[11] = as §1, with “on Z-025” for “on Z-007”, “to rabbit” for “to rat”, “number: ERS12561824” for “number: ERS12561807”; conditions: 2 µM
[12] = human gut metagenome, 24 h, 2 µM; remark: listed apart in the source
[13] = as §1, with “on WLS-310” for “on Z-007”, “to human” for “to rat”, “number: ERS12561785” for “number: ERS12561807”; conditions: 2 µM
[14] = human gut metagenome, 24 h, 2 µM; remark: listed apart in the source
[15] = human gut metagenome, 24 h, 2 µM; remark: listed apart in the source
[16] = as §1, with “Z-012” for “Z-007”, “to” for “to rat gut”, “ERS12561812” for “ERS12561807”; conditions: 2 µM
[17] = as §1, with “Z-014” for “Z-007”, “ERS12561814” for “ERS12561807”; conditions: 2 µM
[18] = human gut metagenome, 24 h, 2 µM; remark: listed apart in the source
[19] = human gut metagenome, 24 h, 2 µM; remark: listed apart in the source
[20] = as §1, with “on WLS-240” for “on Z-007”, “to human” for “to rat”, “number: ERS12561773” for “number: ERS12561807”; conditions: 2 µM
Also: call rule not given here.

Row | SMILES | Bacterial Biotransformation [1] | Bacterial Biotransformation [2] | Bacterial Biotransformation [3] | Bacterial Biotransformation [4] | Bacterial Biotransformation [5] | Bacterial Biotransformation [6] | Bacterial Biotransformation [7] | Bacterial Biotransformation [8] | Bacterial Biotransformation [9] | Bacterial Biotransformation [10] | Bacterial Biotransformation [11] | Bacterial Biotransformation [12] | Bacterial Biotransformation [13] | Bacterial Biotransformation [14] | Bacterial Biotransformation [15] | Bacterial Biotransformation [16] | Bacterial Biotransformation [17] | Bacterial Biotransformation [18] | Bacterial Biotransformation [19] | Bacterial Biotransformation [20]
1 | CN1C(C(=O)Nc2ccccn2)=C(O)c2sccc2S1(=O)=O [TENOXICAM] | Compound metabolized | Compound NOT metabolized | Compound NOT metabolized | Compound NOT metabolized | Compound NOT metabolized | Compound NOT metabolized | Compound NOT metabolized | Compound NOT metabolized | Compound NOT metabolized | Compound NOT metabolized | Compound metabolized | Compound NOT metabolized | Compound NOT metabolized | Compound NOT metabolized | Compound NOT metabolized | Compound NOT metabolized | Compound NOT metabolized | Compound NOT metabolized | Compound NOT metabolized | Compound NOT metabolized
2 | CCCc1nn(C)c2c(=O)[nH]c(-c3cc(S(=O)(=O)N4CCN(C)CC4)ccc3OCC)nc12.O=C(O)CC(O)(CC(=O)O)C(=O)O [SILDENAFIL CITRATE] | Compound NOT metabolized | Compound NOT metabolized | Compound metabolized | Compound NOT metabolized | Compound NOT metabolized | Compound NOT metabolized | Compound NOT metabolized | Compound NOT metabolized | Compound NOT metabolized | Compound NOT metabolized | Compound metabolized | Compound metabolized | Compound metabolized | Compound NOT metabolized | Compound NOT metabolized | Compound NOT metabolized | Compound NOT metabolized | Compound NOT metabolized | Compound NOT metabolized | Compound metabolized
3 | CN1CCN(C(=O)O[C@H]2c3nccnc3C(=O)N2c2ccc(Cl)cn2)CC1 [ESZOPICLONE] | Compound NOT metabolized | Compound NOT metabolized | Compound NOT metabolized | Compound NOT metabolized | Compound NOT metabolized | Compound NOT metabolized | Compound NOT metabolized | Compound NOT metabolized | Compound NOT metabolized | Compound NOT metabolized | Compound NOT metabolized | Compound NOT metabolized | Compound NOT metabolized | Compound NOT metabolized | Compound NOT metabolized | Compound NOT metabolized | Compound NOT metabolized | Compound NOT metabolized | Compound NOT metabolized | Compound NOT metabolized
4 | OC(CCN1CCCCC1)(c1ccccc1)C1CCCCC1 (stereo not given) [TRIHEXYPHENIDYL] | Compound metabolized | Compound NOT metabolized | Compound metabolized | Compound metabolized | Compound NOT metabolized | Compound metabolized | Compound NOT metabolized | Compound NOT metabolized | Compound metabolized | Compound NOT metabolized | Compound NOT metabolized | Compound metabolized | Compound metabolized | Compound metabolized | Compound metabolized | Compound NOT metabolized | Compound NOT metabolized | Compound metabolized | Compound NOT metabolized | Compound metabolized
5 | Cc1cn([C@H]2C[C@H](N=[N+]=[N-])[C@@H](CO)O2)c(=O)[nH]c1=O [ZIDOVUDINE] | Compound NOT metabolized | Compound metabolized | Compound NOT metabolized | Compound NOT metabolized | Compound metabolized | Compound metabolized | Compound NOT metabolized | Compound metabolized | Compound NOT metabolized | Compound NOT metabolized | Compound metabolized | Compound NOT metabolized | Compound NOT metabolized | Compound NOT metabolized | Compound NOT metabolized | Compound metabolized | Compound NOT metabolized | Compound NOT metabolized | Compound NOT metabolized | Compound NOT metabolized
6 | CCN(CC)CCNC(C(=O)OCCC(C)C)c1ccccc1.Cl.Cl (stereo not given) | Compound NOT metabolized | Compound NOT metabolized | Compound metabolized | Compound metabolized | Compound NOT metabolized | Compound metabolized | Compound metabolized | Compound NOT metabolized | Compound NOT metabolized | Compound NOT metabolized | Compound NOT metabolized | Compound metabolized | Compound metabolized | Compound NOT metabolized | Compound metabolized | Compound NOT metabolized | Compound NOT metabolized | Compound metabolized | Compound metabolized | Compound metabolized
7 | COc1ccccc1OCC(O)CN1CCN(CC(=O)Nc2c(C)cccc2C)CC1 (stereo not given) [RANOLAZINE] | Compound NOT metabolized | Compound NOT metabolized | Compound NOT metabolized | Compound NOT metabolized | Compound NOT metabolized | Compound NOT metabolized | Compound NOT metabolized | Compound NOT metabolized | Compound NOT metabolized | Compound NOT metabolized | Compound NOT metabolized | Compound NOT metabolized | Compound NOT metabolized | Compound NOT metabolized | Compound NOT metabolized | Compound NOT metabolized | Compound NOT metabolized | Compound NOT metabolized | Compound NOT metabolized | Compound NOT metabolized
